Measured values taken from ChEMBL document CHEMBL1148542, “Synthesis of a novel biotin-tagged photoaffinity probe for VEGF receptor tyrosine kinases” (Bioorg Med Chem Lett, 2006).

Key:
[1] = target: Vascular endothelial growth factor receptor 2 (Homo sapiens, UniProt P35968); assay: Inhibitory activity against VEGFR2 kinase
[2] = target: Vascular endothelial growth factor receptor (Homo sapiens, UniProt P17948+P35916+P35968); assay: Inhibitory activity against VEGF-stimulated proliferation in HUVEC; assay type: functional

Chain of Vascular endothelial growth factor receptor 2 (P35968 whole entry): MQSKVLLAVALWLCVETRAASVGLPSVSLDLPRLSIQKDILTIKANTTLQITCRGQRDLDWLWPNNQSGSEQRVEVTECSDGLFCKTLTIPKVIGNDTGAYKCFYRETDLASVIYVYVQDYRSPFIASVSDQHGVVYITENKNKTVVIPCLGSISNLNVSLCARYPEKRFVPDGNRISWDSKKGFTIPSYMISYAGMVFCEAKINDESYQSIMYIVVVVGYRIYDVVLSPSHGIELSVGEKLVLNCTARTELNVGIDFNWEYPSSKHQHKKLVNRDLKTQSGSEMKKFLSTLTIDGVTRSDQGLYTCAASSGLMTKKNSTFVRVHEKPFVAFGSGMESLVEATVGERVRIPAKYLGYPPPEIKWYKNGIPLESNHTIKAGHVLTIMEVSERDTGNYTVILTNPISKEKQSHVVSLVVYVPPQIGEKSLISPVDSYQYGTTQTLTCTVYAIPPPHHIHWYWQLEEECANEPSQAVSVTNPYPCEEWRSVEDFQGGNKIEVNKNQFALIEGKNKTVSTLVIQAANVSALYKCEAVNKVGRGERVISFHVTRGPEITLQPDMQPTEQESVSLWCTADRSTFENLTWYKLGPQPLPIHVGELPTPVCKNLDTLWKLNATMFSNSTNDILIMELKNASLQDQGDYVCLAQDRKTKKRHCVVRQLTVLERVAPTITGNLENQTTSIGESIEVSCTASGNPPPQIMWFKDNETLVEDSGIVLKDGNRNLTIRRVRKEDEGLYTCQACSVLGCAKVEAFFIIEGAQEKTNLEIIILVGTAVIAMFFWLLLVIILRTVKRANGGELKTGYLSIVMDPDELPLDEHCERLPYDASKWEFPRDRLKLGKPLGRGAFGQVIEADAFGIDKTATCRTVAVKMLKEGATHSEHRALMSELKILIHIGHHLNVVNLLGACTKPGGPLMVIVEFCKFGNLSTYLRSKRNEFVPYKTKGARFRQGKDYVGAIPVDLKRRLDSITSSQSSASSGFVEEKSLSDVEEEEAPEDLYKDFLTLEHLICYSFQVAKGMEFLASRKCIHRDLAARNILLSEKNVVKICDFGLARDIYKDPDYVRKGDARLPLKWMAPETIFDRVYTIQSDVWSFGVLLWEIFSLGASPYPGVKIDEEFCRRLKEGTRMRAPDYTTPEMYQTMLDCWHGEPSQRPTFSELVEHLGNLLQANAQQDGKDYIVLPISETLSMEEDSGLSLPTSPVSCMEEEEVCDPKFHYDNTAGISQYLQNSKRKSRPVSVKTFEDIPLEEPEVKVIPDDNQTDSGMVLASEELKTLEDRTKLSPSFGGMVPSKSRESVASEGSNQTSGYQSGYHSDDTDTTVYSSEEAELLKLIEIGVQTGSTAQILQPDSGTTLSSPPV

SMILES	IC50 [1]	IC50 [2]
COc1cc2ncnc(Nc3ccc(Cl)cc3F)c2cc1OC	1.5 µM	–
COc1cc2c(Nc3ccc(Cl)cc3F)ncnc2cc1OCCOCCNC(=O)c1c(F)c(F)c(N=[N+]=[N-])c(F)c1F	< 1 µM	3.2 µM
COc1cc2c(Nc3ccc(Cl)cc3F)ncnc2cc1OCCOCCNC(=O)CCCCC1SCC2NC(=O)NC21 (stereo unspecified)	1.5 µM	1.9 µM
COc1cc2c(Nc3ccc(Cl)cc3F)ncnc2cc1OCCNC(=O)c1c(F)c(F)c(N=[N+]=[N-])c(F)c1F	< 1 µM	4.1 µM

The remaining lines, values ahead:

IC50 [1]	IC50 [2]	SMILES
7.1 µM	40.3 µM	COc1cc2c(Nc3ccc(Cl)cc3F)ncnc2cc1OCCOCCNC(=O)C(CCCCNC(=O)CCCCC1SCC2NC(=O)NC21)NC(=O)c1c(F)c(F)c(N=[N+]=[N-])c(F)c1F (stereo unspecified)
4.8 µM	14.7 µM	COc1cc2c(Nc3ccc(Cl)cc3F)ncnc2cc1OCCNC(=O)CCCCC1SCC2NC(=O)NC21 (stereo unspecified)
